System: α-amylase
Assay: α-Amylase inhibition (anti-diabetic)
Format: biochemical
Conditions: equal concentrations (1000 µg/mL); mean ± SE

SMILES	Inhibition (%) α-Amylase
COc1ccc(Nc2n[nH]c(/N=C/c3ccc(N4CCCCC4)cc3)c2C(=O)Nc2ccc(C)cc2)cc1 [5e]	31.83 ± 0.05%

System: α-glucosidase
Assay: α-Glucosidase inhibition (anti-diabetic)
Format: biochemical
Conditions: equal concentrations (1000 µg/mL); mean ± SE

SMILES	Inhibition (%) α-Glucosidase
COc1ccc(Nc2n[nH]c(/N=C/c3ccc(N4CCCCC4)cc3)c2C(=O)Nc2ccc(C)cc2)cc1 [5e]	27.37 ± 0.05%

Target: acetylcholinesterase (AChE) (Homo sapiens, UniProt P22303)
Assay: biochemical
Conditions: same concentration (1000 µg/mL); mean ± SE

Chain of acetylcholinesterase (AChE) (P22303 32-614, species assumed): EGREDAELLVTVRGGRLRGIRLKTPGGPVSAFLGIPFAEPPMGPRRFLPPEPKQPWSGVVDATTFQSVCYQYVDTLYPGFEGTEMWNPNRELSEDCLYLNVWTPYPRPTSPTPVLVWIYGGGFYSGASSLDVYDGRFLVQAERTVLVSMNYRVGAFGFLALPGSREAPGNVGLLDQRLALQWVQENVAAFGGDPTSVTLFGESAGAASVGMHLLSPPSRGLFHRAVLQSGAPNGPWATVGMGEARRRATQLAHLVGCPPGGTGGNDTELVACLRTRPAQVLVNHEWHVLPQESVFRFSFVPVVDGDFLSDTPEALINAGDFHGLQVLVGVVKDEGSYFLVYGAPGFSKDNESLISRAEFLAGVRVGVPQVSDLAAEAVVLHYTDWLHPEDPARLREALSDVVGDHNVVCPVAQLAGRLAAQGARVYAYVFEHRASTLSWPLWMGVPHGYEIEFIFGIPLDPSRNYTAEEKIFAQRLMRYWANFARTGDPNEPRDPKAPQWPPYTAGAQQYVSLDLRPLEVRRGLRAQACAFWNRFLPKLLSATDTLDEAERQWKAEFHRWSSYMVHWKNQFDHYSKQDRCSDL

SMILES	inhibition at 1000 µg/mL
COc1ccc(Nc2n[nH]c(/N=C/c3ccc(N4CCCCC4)cc3)c2C(=O)Nc2ccc(C)cc2)cc1 [5e]	42.83 ± 0.03%

Target: bovine serum albumin (BSA) (Bos taurus, UniProt P02769)
Assay: not given
Conditions: equal concentrations (1000 µg/mL); mean ± SE

Chain of bovine serum albumin (BSA) (P02769 25-607): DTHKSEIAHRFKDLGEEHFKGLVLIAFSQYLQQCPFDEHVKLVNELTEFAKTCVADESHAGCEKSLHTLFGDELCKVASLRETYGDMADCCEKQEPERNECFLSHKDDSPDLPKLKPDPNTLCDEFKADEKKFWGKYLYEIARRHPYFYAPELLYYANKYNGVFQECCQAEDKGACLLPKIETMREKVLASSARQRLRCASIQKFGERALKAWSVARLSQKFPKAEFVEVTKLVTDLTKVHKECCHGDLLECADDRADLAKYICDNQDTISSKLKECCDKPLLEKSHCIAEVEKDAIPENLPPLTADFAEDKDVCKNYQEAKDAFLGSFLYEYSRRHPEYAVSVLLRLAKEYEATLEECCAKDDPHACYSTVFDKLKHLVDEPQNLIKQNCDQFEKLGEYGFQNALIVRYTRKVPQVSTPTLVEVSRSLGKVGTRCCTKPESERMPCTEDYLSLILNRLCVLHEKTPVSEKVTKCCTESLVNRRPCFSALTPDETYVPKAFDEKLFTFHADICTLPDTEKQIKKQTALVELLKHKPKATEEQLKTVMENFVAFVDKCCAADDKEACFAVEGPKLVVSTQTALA

SMILES	Inhibition (%) Protein Denaturation
COc1ccc(Nc2n[nH]c(/N=C/c3ccc(N4CCCCC4)cc3)c2C(=O)Nc2ccc(C)cc2)cc1 [5e]	27.33 ± 0.03%

System: proteinase enzyme (trypsin)
Assay: Proteinase enzyme inhibition (anti-inflammatory)
Format: biochemical
Conditions: equal concentrations (1000 µg/mL); mean ± SE

SMILES	Inhibition (%) Proteinase
COc1ccc(Nc2n[nH]c(/N=C/c3ccc(N4CCCCC4)cc3)c2C(=O)Nc2ccc(C)cc2)cc1 [5e]	23.76 ± 0.03%

System: human colon cancer (Caco-2) cell line
Assay: cells
Format: cell-based
Conditions: Conc.: 5a 13.45, 5d 12.64, 5e 12.29, 5f 11.81, 7a 12.72, 7f 11.24, DOX 11.50

SMILES	Viability %, Caco-2, 1st concentration
COc1ccc(Nc2n[nH]c(/N=C/c3ccc(N4CCCCC4)cc3)c2C(=O)Nc2ccc(C)cc2)cc1 [5e]	70.21%

Same assay, conditions: Conc.: 5a 26.91, 5d 25.27, 5e 24.58, 5f 23.63, 7a 25.43, 7f 22.48, DOX 23.00

SMILES	Viability %, Caco-2, 2nd concentration
COc1ccc(Nc2n[nH]c(/N=C/c3ccc(N4CCCCC4)cc3)c2C(=O)Nc2ccc(C)cc2)cc1 [5e]	50.65%

Same assay, conditions: Conc.: 5a 53.81, 5d 50.55, 5e 49.15, 5f 47.26, 7a 50.86, 7f 44.96, DOX 46.00

SMILES	Viability %, Caco-2, 3rd concentration
COc1ccc(Nc2n[nH]c(/N=C/c3ccc(N4CCCCC4)cc3)c2C(=O)Nc2ccc(C)cc2)cc1 [5e]	40.04%

Same assay, conditions: Conc.: 5a 107.63, 5d 101.09, 5e 98.31, 5f 94.51, 7a 101.72, 7f 89.93, DOX 91.99

SMILES	Viability %, Caco-2, 4th concentration
COc1ccc(Nc2n[nH]c(/N=C/c3ccc(N4CCCCC4)cc3)c2C(=O)Nc2ccc(C)cc2)cc1 [5e]	26.27%

Same assay, conditions: Conc.: 5a 215.26, 5d 202.19, 5e 196.61, 5f 189.03, 7a 203.44, 7f 179.85, DOX 183.99

SMILES	Viability %, Caco-2, 5th concentration
COc1ccc(Nc2n[nH]c(/N=C/c3ccc(N4CCCCC4)cc3)c2C(=O)Nc2ccc(C)cc2)cc1 [5e]	11.43%

Same assay, conditions: Homo sapiens, Caco-2; 48 h, MTT; mean ± SE; read-out: Cytotoxic activity IC50, Colon (Caco-2)

SMILES	IC50
COc1ccc(Nc2n[nH]c(/N=C/c3ccc(N4CCCCC4)cc3)c2C(=O)Nc2ccc(C)cc2)cc1 [5e]	40.99 ± 0.2 µM

Same assay, conditions: IC50 on normal cells (WI-38)/IC50 on Caco-2

SMILES	Therapeutic Index (TI), Colon (Caco-2)
COc1ccc(Nc2n[nH]c(/N=C/c3ccc(N4CCCCC4)cc3)c2C(=O)Nc2ccc(C)cc2)cc1 [5e]	15.81

System: not listed separately
Assay: Cytotoxic activity, MTT assay, normal lung (WI-38)
Format: cell-based
Conditions: human, WI-38 normal lung cells, Conc. as printed: 5a 53.81, 5d 50.55, 5e 49.15, 5f 47.26, 7a 50.86, 7f 44.96, DOX 46.00; read-out: Viability %, WI-38, 3rd concentration

SMILES	viability at 48 h
COc1ccc(Nc2n[nH]c(/N=C/c3ccc(N4CCCCC4)cc3)c2C(=O)Nc2ccc(C)cc2)cc1 [5e]	81%

Same assay, conditions: human, WI-38 normal lung cells, Conc. as printed: 5a 107.63, 5d 101.09, 5e 98.31, 5f 94.51, 7a 101.72, 7f 89.93, DOX 91.99; read-out: Viability %, WI-38, 4th concentration

SMILES	viability at 48 h
COc1ccc(Nc2n[nH]c(/N=C/c3ccc(N4CCCCC4)cc3)c2C(=O)Nc2ccc(C)cc2)cc1 [5e]	65.7%

Same assay, conditions: human, WI-38 normal lung cells, Conc.: 5a 13.45, 5d 12.64, 5e 12.29, 5f 11.81, 7a 12.72, 7f 11.24, DOX 11.50; read-out: Viability %, WI-38, 1st concentration

SMILES	viability at 48 h
COc1ccc(Nc2n[nH]c(/N=C/c3ccc(N4CCCCC4)cc3)c2C(=O)Nc2ccc(C)cc2)cc1 [5e]	92.9%

Same assay, conditions: human, WI-38 normal lung cells, Conc.: 5a 26.91, 5d 25.27, 5e 24.58, 5f 23.63, 7a 25.43, 7f 22.48, DOX 23.00; read-out: Viability %, WI-38, 2nd concentration

SMILES	viability at 48 h
COc1ccc(Nc2n[nH]c(/N=C/c3ccc(N4CCCCC4)cc3)c2C(=O)Nc2ccc(C)cc2)cc1 [5e]	87%

Same assay, conditions: human, WI-38 normal lung cells, Conc.: 5a 215.26, 5d 202.19, 5e 196.61, 5f 189.03, 7a 203.44, 7f 179.85, DOX 183.99; read-out: Viability %, WI-38, 5th concentration

SMILES	viability at 48 h
COc1ccc(Nc2n[nH]c(/N=C/c3ccc(N4CCCCC4)cc3)c2C(=O)Nc2ccc(C)cc2)cc1 [5e]	38.3%

Same assay, conditions: human, WI-38 normal lung cells; 48 h, MTT; mean ± SE; read-out: Cytotoxic activity IC50, Normal Lung (WI-38)

SMILES	IC50 at 48 h
COc1ccc(Nc2n[nH]c(/N=C/c3ccc(N4CCCCC4)cc3)c2C(=O)Nc2ccc(C)cc2)cc1 [5e]	648 ± 7.57 µM

System: caspase-3
Assay: Caspase-3 ELISA in treated A549 cells
Format: cell-based, human
Conditions: DMSO control 85.92 ± 0.12

SMILES	Caspase-3 level, Lung (A549)
COc1ccc(Nc2n[nH]c(/N=C/c3ccc(N4CCCCC4)cc3)c2C(=O)Nc2ccc(C)cc2)cc1 [5e]	214.81 ± 0.30 pg/mL

System: Bcl-2
Assay: Bcl-2 ELISA in treated A549 cells
Format: cell-based, human
Conditions: DMSO control 9.83 ± 0.05

SMILES	Bcl-2 level, Lung (A549)
COc1ccc(Nc2n[nH]c(/N=C/c3ccc(N4CCCCC4)cc3)c2C(=O)Nc2ccc(C)cc2)cc1 [5e]	3.93 ± 0.02 ng/mL

System: caspase-3
Assay: Caspase-3 ELISA in treated Caco-2 cells
Format: cell-based, human
Conditions: DMSO control 97.06 ± 0.14

SMILES	Caspase-3 level, Colon (Caco-2)
COc1ccc(Nc2n[nH]c(/N=C/c3ccc(N4CCCCC4)cc3)c2C(=O)Nc2ccc(C)cc2)cc1 [5e]	315.45 ± 0.46 pg/mL

System: Bcl-2
Assay: Bcl-2 ELISA in treated Caco-2 cells
Format: cell-based, human
Conditions: DMSO control 7.99 ± 0.08

SMILES	Bcl-2 level, Colon (Caco-2)
COc1ccc(Nc2n[nH]c(/N=C/c3ccc(N4CCCCC4)cc3)c2C(=O)Nc2ccc(C)cc2)cc1 [5e]	2.46 ± 0.02 ng/mL

System: not listed separately
Assay: Iron-reducing power (IRP)
Conditions: equal concentrations (1000 µg/mL); mean ± SE, three replicates
Experimental: (§1) All in vitro biological activities were assessed in the tested compounds at equal concentrations (1000 µg/mL). All assays were carried out in triplicate.
In vitro biological activities
(§2) The total antioxidant capacity (TAC) was determined by analyzing the green phosphate/Mo5+ complex at a wavelength (λ) of 695 nm, following the procedure described by Prieto
(§3) et al. Samples (at each concentration) were mixed with a reagent solution containing 0.3 N sulfuric
(§4) acid, 28 mM sodium phosphate, and 4 mM ammonium molybdate. Methanol (80%) was used in place
(§5) of the sample for the blank. The tubes were sealed and incubated in a boiling water bath for 90
(§6) minutes. After cooling to room temperature, the absorbance was measured at 695 nm against the
(§7) blank. Ascorbic acid was used at the same concentrations as a standard. The antioxidant capacity was
(§8) expressed as mg gallic acid equivalent per gram weight.
(§9) The iron reducing power was determined as µg/mL using the method proposed by Oyaizu
(§10) In brief, 1ml of the tested sample (at each concentration) was combined with 1mL of 200mM
(§11) sodium phosphate buffer (pH 6.6) and 1mL of 1% potassium ferricyanide. The mixture was then
(§12) incubated at 50°C for 20 minutes, followed by the addition of 1mL of trichloroacetic acid (10%). After
(§13) centrifugation at 2000rpm for 10 minutes, the upper layer solution (2.5 mL) was mixed with 2.5 mL of double deionized water and 1mL of fresh ferric chloride (0.1%). The absorbance was measured at
(§14) 700nm against a blank prepared without the sample. Ascorbic acid was used at the same
(§15) concentrations as a standard. A high absorbance at 700nm indicates a higher reducing power in the
(§16) The 1,1-Diphenyl-2-picryl-hydrazyl (DPPH) radical scavenging activities were evaluated using the method described by Rahman et al. An antioxidant substance capable of donating a
(§17) hydrogen atom to a solution containing DPPH- can reduce the stable free radical, causing the solution
(§18) to change color from violet to pale yellow. The remaining DPPH- radical was quantified by
(§19) nm using a spectroscopic method. Two milliliters of a DPPH solution (100 µM) in ethanol were mixed
(§20) with 2 mL of the sample (at each concentration). The reaction mixture for each concentration was
(§21) thoroughly vortexed and then incubated in the dark at room temperature for 30 minutes. The
(§22) absorbance was then measured spectrophotometrically at 518 nm against a blank (ethanol). For the
(§23) control, 2 mL of ethanol was added instead of the sample and run simultaneously with the test.
(§24) Ascorbic acid was used at the same concentrations as a positive control. Percent inhibition of the
(§25) DPPH free radical was calculated. The median inhibitory concentration (IC 50) for each tested
(§26) The procedure for the 2,2'-azinobis-(3-ethylbenzothiazoline-6-sulfonic acid) (ABTS) assay
(§27) potassium persulfate solution (2.4 mM). The working solution was prepared by mixing the two stock
(§28) solutions in equal quantities and allowing them to react at room temperature in a dark place for 14
(§29) hours. The solution was then diluted by mixing 1 mL of ABTS solution with 60 mL of methanol to
(§30) was prepared for each assay. The tested samples (at each concentration) were allowed to react with 1
(§31) mL of the ABTS solution, and the absorbance was taken at 734 nm after 7 minutes using a
(§32) spectrophotometer. The ABTS scavenging capacities of the samples were compared with that of
(§33) ascorbic acid (at the same concentrations).

SMILES	Iron-Reducing Power (IRP)
COc1ccc(Nc2n[nH]c(/N=C/c3ccc(N4CCCCC4)cc3)c2C(=O)Nc2ccc(C)cc2)cc1 [5e]	34.91 ± 0.07 µg/mL

System: not listed separately
Assay: ABTS radical scavenging assay
Conditions: equal concentrations (1000 µg/mL); mean ± SE

SMILES	ABTS (%) inhibition
COc1ccc(Nc2n[nH]c(/N=C/c3ccc(N4CCCCC4)cc3)c2C(=O)Nc2ccc(C)cc2)cc1 [5e]	76.87 ± 0.05%

System: not listed separately
Assay: DPPH radical-scavenging activity
Conditions: read-out: DPPH (IC50); mean ± SE, three replicates

SMILES	IC50
COc1ccc(Nc2n[nH]c(/N=C/c3ccc(N4CCCCC4)cc3)c2C(=O)Nc2ccc(C)cc2)cc1 [5e]	23.71 ± 0.01 µM

System: human lung cancer (A549) cell line
Assay: Cytotoxic activity, MTT assay, lung (A549)
Conditions: Conc.: 5a 13.45, 5d 12.64, 5e 12.29, 5f 11.81, 7a 12.72, 7f 11.24, DOX 11.50
Experimental: It will be assayed against human lung cancer (A549) and colon (Caco-2) cell line in
comparison with normal lung (WI-38) cell line using 3-(4,5-dimethythiazol-2-yl)-2,5-diphenyl
tetrazolium bromide (MTT) assay by determining the optical density (OD) at 570 nm according to the
The cells were dispensed in a 96-well sterile microplate (3
µL of each compound or doxorubicin (positive control, in DMSO) for 48 h in a serum free medium
prior to the MTT assay. Subsequently, the media were carefully removed, and 40 µL of MTT (2.5
mg/mL) was added to each well and then incubated for an additional 4 h. Purple formazan dye
crystals were solubilized by the addition of 200 µL of DMSO. The absorbance was measured at 570 nm using a SpectraMax Paradigm Multi-Mode microplate reader. The relative cell viability was
experiments were conducted in triplicate. Percent of the cell-growth inhibition (%) and the IC 50 was
calculated using IC 50 calculation software. The concentrations used for calculating the IC 50 depend on

SMILES	Viability %, A549, 1st concentration
COc1ccc(Nc2n[nH]c(/N=C/c3ccc(N4CCCCC4)cc3)c2C(=O)Nc2ccc(C)cc2)cc1 [5e]	90.96%

Same assay, conditions: Conc.: 5a 26.91, 5d 25.27, 5e 24.58, 5f 23.63, 7a 25.43, 7f 22.48, DOX 23.00

SMILES	Viability %, A549, 2nd concentration
COc1ccc(Nc2n[nH]c(/N=C/c3ccc(N4CCCCC4)cc3)c2C(=O)Nc2ccc(C)cc2)cc1 [5e]	79.91%

Same assay, conditions: Conc.: 5a 53.81, 5d 50.55, 5e 49.15, 5f 47.26, 7a 50.86, 7f 44.96, DOX 46.00

SMILES	Viability %, A549, 3rd concentration
COc1ccc(Nc2n[nH]c(/N=C/c3ccc(N4CCCCC4)cc3)c2C(=O)Nc2ccc(C)cc2)cc1 [5e]	48.51%

Same assay, conditions: Conc.: 5a 107.63, 5d 101.09, 5e 98.31, 5f 94.51, 7a 101.72, 7f 89.93, DOX 91.99

SMILES	Viability %, A549, 4th concentration
COc1ccc(Nc2n[nH]c(/N=C/c3ccc(N4CCCCC4)cc3)c2C(=O)Nc2ccc(C)cc2)cc1 [5e]	37.08%

Same assay, conditions: Conc.: 5a 215.26, 5d 202.19, 5e 196.61, 5f 189.03, 7a 203.44, 7f 179.85, DOX 183.99

SMILES	Viability %, A549, 5th concentration
COc1ccc(Nc2n[nH]c(/N=C/c3ccc(N4CCCCC4)cc3)c2C(=O)Nc2ccc(C)cc2)cc1 [5e]	18.60%

Same assay, conditions: Homo sapiens, A549, 48 h, read-out: Cytotoxic activity IC50, Lung (A549)

SMILES	IC50
COc1ccc(Nc2n[nH]c(/N=C/c3ccc(N4CCCCC4)cc3)c2C(=O)Nc2ccc(C)cc2)cc1 [5e]	47.74 ± 0.2 µM

System: not listed separately
Assay: Total antioxidant capacity (TAC), phosphomolybdenum method
Conditions: equal concentrations (1000 µg/mL); mean ± SE, three replicates
Experimental: as §1
In vitro biological activities
as §2, §3, §4, §5, §6, §7, §8, §9, §10, §11, §12, §13, §14, §15, §16, §17, §18, §19, §20, §21, §22, §23, §24, §25, §26, §27, §28, §29, §30, §31, §32, §33

SMILES	Total Antioxidant Capacity (TAC)
COc1ccc(Nc2n[nH]c(/N=C/c3ccc(N4CCCCC4)cc3)c2C(=O)Nc2ccc(C)cc2)cc1 [5e]	53.23 ± 0.20 mg Gallic Acid/g
